Measured values published in a melting point compilation (Tetko et al.; mined from patent text by program, amines drawn as free bases though some values may be those of a salt).

melting point [°C]	SMILES
194 to 196	CSCC(C)(C)NC(=O)c1c(I)cccc1-c1ccc(C(F)(F)F)cc1
129 to 130	O=Cc1ccc(N(c2ccccc2)c2ccccc2)cc1
> 300	O=C1c2ccccc2C(=O)N1c1ccc(N2C(=O)c3ccccc3C2=O)c(O)c1
158 to 160	CC(=O)OCCN(C(=O)Cn1c(=O)n(C)c2nc(-c3ccccc3)ncc21)c1ccccc1
257 to 259	C=CCOc1ccc2c(c1)c(-c1cc3cccnc3n1S(=O)(=O)c1ccc(C)cc1)cn2C
146 to 149	COC(=O)NC(C)(C)c1ccc(CS(=O)(=O)c2ccc(C)c(C)c2)cc1
216 to 218	CC(C)(O)c1ccc(Cl)c2nc3n(c12)CCCN3c1ccc(Cl)cc1Cl
231	FC(F)(F)c1ccc(-c2cc(C(F)(F)F)n3cnc(-c4cccnc4)c3n2)cc1
126	CC1C(c2ccccc2)OC(C)(C)N1C(=O)C(Cl)Cl (stereo not given)
160 to 165	N#C[C@@H](Cc1ccccc1)Oc1c(Br)cc(-c2c3ccccc3c(Br)c3sc4ccccc4c23)cc1Br
150 to 151	O=[N+]([O-])c1ccccc1-c1ccc(CNc2nc(C(F)(F)F)nc3c2CCCC3)cc1
86 to 87	COC(=O)C12OC1(Cc1ccc(Cl)cc1)CCC2(C)C (stereo not given)
88 to 89	CCCn1c(=O)cc2n(c1=O)CC(CSc1ccccc1)S2 (stereo not given)
147 to 148	Cc1ccccc1-c1nc(-c2cccc(Cl)c2)n[nH]1
75 to 78	CC(C)N(CCC(CCN(C)C)(C(N)=O)c1ccccc1)C(C)C (stereo not given)
154 to 156	NS(=O)(=O)c1ccc(-c2cnn(CC(F)(F)F)c(=O)c2-c2ccc(Cl)cc2)cc1
168 to 169	O=C1Nc2cccnc2N(C(=O)NCCN2CCC(CN3CCCCC3)C2)c2ccccc21 (stereo not given)
183 to 185	CCc1nc2nc(C)nn2c(O)c1CCC(C)CC(C)(C)C (stereo not given)
211 to 213	O=C(O)c1cc(-n2c(-c3cccs3)cc3c2CCCC3)ccc1O
72 to 81	CC(C)(C)CC(C)(C)c1cc(Cl)c(O)c(-n2nc3ccc(C(F)(F)F)cc3n2)c1
103 to 104	Clc1nccc2cc(Br)ccc12
60 to 64	CS(=O)(=O)c1ccc(-c2cc(CBr)nn2-c2ccc(Cl)cc2)cc1
160 to 161	COc1ccc(C(=O)NCc2ccc(NC3=NCCN3)cc2)cc1

melting point [°C]	SMILES
190 to 192	N#CN=C(Nc1cccnc1)NC(NC(=O)c1ccc(Cl)cc1)C1CCCCC1 (stereo not given)
114 to 115	CCOC(=O)COc1cc2c(c(Cl)c1Cl)C(=O)C(c1ccccc1)C2 (stereo not given)
115 to 116	COCCNC(=O)c1cc(C)nc(-c2cccc3cc(Cc4cccc(C(F)(F)F)c4)sc23)c1
169 to 171	CC1COc2c(F)c(F)cc3c2N1C(=O)C3=O (stereo not given)
232 to 237	O=C(O)CN1C(=O)C(=CC=Cc2cccc(-c3ccccc3)c2)SC1=S
44 to 47	CC(=O)Nc1ccc(C(F)(F)F)cc1-c1ccc(OC(C)C(O)CCc2cccnc2)cc1 (stereo not given)
149 to 150	COc1cc(CCCC2SC(=O)NC2=O)ccc1OCc1nc(-c2ccccc2)sc1C (stereo not given)
200 to 203	CCc1c(NC(=O)c2cc(S(C)(=O)=O)ccc2OCC(C)C)c(C(N)=O)nn1CCN1CCOCC1
101	N#Cc1cccc(C=Nc2ccc(F)cc2)c1
105 to 106	O=C1CC(c2ccc(F)cc2)Cc2occ(C(F)(F)F)c21 (stereo not given)
133 to 135	CC(C)(C)OC(=O)N1C[C@H](n2ccc(NC(=O)c3ccccc3)nc2=O)C[C@@H]1C(=O)OC(c1ccccc1)c1ccccc1
141 to 142	COc1ccc2nc(NC(=O)COC(=O)C(C)C)sc2c1
197 to 198	CC(C)(C)OC(=O)c1sc(Nc2ccc(Cl)cc2)c2c1CCc1cnoc1-2
165 to 167	CC(=O)NC1(CCc2ccccc2)CCOC(=O)CC1 (stereo not given)
138 to 142	O=C(Cn1sc2ccccc2c1=O)N1CCN(C(=O)OCc2ccccc2)CC1
113 to 114	O=C1NCC(Cc2ccccc2F)O1 (stereo not given)
216 to 217	C#Cc1cc(CC)c(-c2c(O)c(C)nn(C)c2=O)c(CC)c1
48 to 49.5	CCCCCCCCOC(=O)C=Cc1ccc(N(C)C)cc1
125 to 138	O=C(/C=C/c1ccc(Cl)cc1)N1CCN(C(=O)c2cc(C(F)(F)F)cc(C(F)(F)F)c2)[C@H](Cc2c[nH]c3ccccc23)C1
91 to 92	O=C(O)CCSC(c1ccccc1CCCCCCCCc1ccccc1)C(O)C(=O)O (stereo not given)
105 to 106	CCOC(=O)c1cc(Cl)c(N)c2c1OCCO2
201 to 207	O=C(O)C1=C(c2cccs2)c2cc(Cl)ccc2OC1C(F)(F)F (stereo not given)
80 to 82	CCCCOCCOc1ccc(-c2ccc3c(c2)C=C(C(=O)OC)CCN3c2ccccc2)cc1

melting point [°C]	SMILES
61 to 64	CCCCCCNC(=O)C1CCCN1 (stereo not given)
242 to 246	O=[PH]1Cc2ccc3ccccc3c2-c2c(ccc3ccccc23)C1
149 to 151	CCc1nc2c(C)cc(C)nc2n1Cc1ccc(C(=C(Br)c2nnn[nH]2)c2ccccc2)cc1
82 to 83	CC(C)C[C@@H](NC(=O)OC(C)(C)C)C(=O)N[C@H](C(=O)OCc1ccccc1)C(C)C
35 to 38	CCCCCCCCCCCCc1cc(C)on1
171 to 172	Cc1c(NC(=O)CC(C)(C)C)cc2c(c1C)OC(C)(C)C2c1ccc(Br)cc1 (stereo not given)
187 to 189	CC(C)c1ccc(-c2ccc(/C=C/C(=O)Nc3ccc(CN(C)C4CCOCC4)cc3)s2)cc1
105 to 106	Cc1nc2c(N)nc3ccccc3c2n1CCCCOCCCc1ccccc1
82 to 84	CCOCc1nc2c(N)nc3cc(OCCNC(=O)OC(C)(C)C)ccc3c2n1CC1COC(C)(C)O1 (stereo not given)
170 to 171	COCC(=O)Nc1c(Cl)c(C)cc2nc(OC)c(OC)nc12
198 to 200	O=C(O)CCC(=O)c1ccc(-c2ccc(Br)cc2)cc1
136 to 138	C=Cc1cc(CNC(=O)C(C)=Cc2ccc(C(C)(C)C)cc2)cc(F)c1NS(C)(=O)=O
165 to 167	c1ccc(COc2cccc3nc[nH]c23)cc1
84 to 86	CCN1CCCC(NC(=O)c2cc(C)on2)C1 (stereo not given)
127 to 129	CCCN(CCC)C(=O)Cn1c(-c2ccc(OC)cc2)nc2cccnc21
109 to 111	N#CN1CCC(C2c3ccccc3NN2c2ccccc2Cl)CC1 (stereo not given)
86 to 88	COC(=O)C(C(=O)OC)c1ccc(Br)cc1[N+](=O)[O-]
48 to 55	CC(C)c1nc2ccccc2c(=O)n1NC(=O)C(C)c1ccccc1 (stereo not given)
212 to 214	CCCn1cnc(COc2nn3c(-c4ccccc4)nnc3cc2-c2ccccc2)n1
145 to 149	O=C1C(=O)N(CCCN2CCN(C(c3ccccc3)(c3ccccc3)c3ccccc3)CC2)c2ccccc21
166 to 168	O=C1COc2cccc3nc4c(c(c23)N1Cc1ccccc1)CCCC4

SMILES	melting point [°C]
CNC1CC=C(c2c[nH]c3cc([N+](=O)[O-])ccc23)CC1 (stereo not given)	170 to 172
NC(=O)OCCn1cc(C(N)=O)c([N+](=O)[O-])n1	191 to 194
COc1cc2c(cc1OC)C(c1ccco1)=NN=C(C)C2	155 to 157
